Laboratory results from the NIST ThermoML archive (doi:10.1016/j.jct.2017.06.001).

Experiment: xn = mol fraction of the nth substance listed
Settings: 100 kPa, Liquid; for speed of sound: Frequency=5 MHz, Pulse-echo method; for mass density: Vibrating tube method

OCCCCCO [1,5-pentanediol] + O
Settings	mass density [kg/m3]	speed of sound [m/s]
288.15 K, x1 = 0.005	998.88	–
288.15 K, x1 = 0.0101	999.03	–
288.15 K, x1 = 0.0196	999.79	–
288.15 K, x1 = 0.0251	1000.47	–
288.15 K, x1 = 0.0304	1001.25	–
288.15 K, x1 = 0.05	1003.56	–
288.15 K, x1 = 0.0769	1005.76	–
288.15 K, x1 = 0.1002	1007.25	–
288.15 K, x1 = 0.1438	1008.43	–
288.15 K, x1 = 0.1845	1008.63	–
288.15 K, x1 = 0.206	–	1706.1
288.15 K, x1 = 0.2108	–	1706.3
288.15 K, x1 = 0.2162	–	1706.4
288.15 K, x1 = 0.2177	–	1706.4
288.15 K, x1 = 0.2203	–	1706.5
288.15 K, x1 = 0.2319	–	1706.5
288.15 K, x1 = 0.2402	–	1706.4
288.15 K, x1 = 0.25	–	1706.2
288.15 K, x1 = 0.2503	1007.9	–
288.15 K, x1 = 0.2599	–	1706
288.15 K, x1 = 0.2695	–	1705.6
288.15 K, x1 = 0.283	–	1705
288.15 K, x1 = 0.3	1006.94	–
288.15 K, x1 = 0.3004	–	1704.1
288.15 K, x1 = 0.3171	–	1703
288.15 K, x1 = 0.3343	1006.2	–
288.15 K, x1 = 0.3398	–	1701.4
288.15 K, x1 = 0.3601	–	1699.8
288.15 K, x1 = 0.3882	–	1697.2
288.15 K, x1 = 0.4171	1004.47	–
288.15 K, x1 = 0.4185	–	1694.2
288.15 K, x1 = 0.4484	–	1690.8
288.15 K, x1 = 0.454	1003.59	–
288.15 K, x1 = 0.4755	–	1687.5
288.15 K, x1 = 0.4893	–	1685.8
288.15 K, x1 = 0.5003	1002.5	–
288.15 K, x1 = 0.508	–	1683.4
288.15 K, x1 = 0.5305	–	1680.3
288.15 K, x1 = 0.5362	1001.6	–
288.15 K, x1 = 0.5516	–	1677.4
288.15 K, x1 = 0.5741	–	1674.2
288.15 K, x1 = 0.5932	–	1671.5
288.15 K, x1 = 0.6177	999.9	–
288.15 K, x1 = 0.6187	–	1667.9
288.15 K, x1 = 0.6383	–	1665
288.15 K, x1 = 0.6478	999.3	–
288.15 K, x1 = 0.6592	–	1662.1
288.15 K, x1 = 0.6819	–	1658.9
288.15 K, x1 = 0.7025	998.2	–
288.15 K, x1 = 0.7043	–	1655.7
288.15 K, x1 = 0.7236	–	1653.1
288.15 K, x1 = 0.7443	–	1650.3
288.15 K, x1 = 0.7504	997.4	–
288.15 K, x1 = 0.7647	–	1647.6
288.15 K, x1 = 0.7836	–	1645.2
288.15 K, x1 = 0.7927	996.5	–
288.15 K, x1 = 0.8018	–	1642.8
288.15 K, x1 = 0.8231	–	1640.1
288.15 K, x1 = 0.8417	–	1637.8
288.15 K, x1 = 0.8605	995.2	–
288.15 K, x1 = 0.8609	–	1635.4
288.15 K, x1 = 0.8783	–	1633.2
288.15 K, x1 = 0.8967	–	1630.9
288.15 K, x1 = 0.9004	994.4	–
288.15 K, x1 = 0.9133	–	1628.7
288.15 K, x1 = 0.9388	–	1625.3
288.15 K, x1 = 0.9496	993.3	–
288.15 K, x1 = 0.9515	–	1623.6
288.15 K, x1 = 0.9651	–	1621.7
288.15 K, x1 = 0.9837	–	1618.9
288.15 K, x1 = 1	992.2	1616.4
293.15 K, x1 = 0.0002	–	1483
293.15 K, x1 = 0.0004	–	1483.8
293.15 K, x1 = 0.0005	–	1484.4
293.15 K, x1 = 0.0008	–	1485.6
293.15 K, x1 = 0.0012	–	1487
293.15 K, x1 = 0.0017	–	1489
293.15 K, x1 = 0.0021	–	1490.8
293.15 K, x1 = 0.0029	–	1493.7
293.15 K, x1 = 0.0037	–	1496.8
293.15 K, x1 = 0.0043	–	1499.2
293.15 K, x1 = 0.005	–	1501.8
293.15 K, x1 = 0.0057	–	1504.5
293.15 K, x1 = 0.0064	–	1506.9
293.15 K, x1 = 0.0071	–	1509.3
293.15 K, x1 = 0.0078	–	1511.9
293.15 K, x1 = 0.0085	–	1514.3
293.15 K, x1 = 0.0091	–	1516.7
293.15 K, x1 = 0.0098	–	1519
293.15 K, x1 = 0.0107	–	1522
293.15 K, x1 = 0.0113	–	1524.2
293.15 K, x1 = 0.012	–	1526.6
293.15 K, x1 = 0.0128	–	1529.1
293.15 K, x1 = 0.0136	–	1531.6
293.15 K, x1 = 0.0143	–	1534
293.15 K, x1 = 0.015	–	1536.2
293.15 K, x1 = 0.0158	–	1538.5
293.15 K, x1 = 0.0165	–	1540.7
293.15 K, x1 = 0.0172	–	1543
293.15 K, x1 = 0.018	–	1545.3
293.15 K, x1 = 0.0189	–	1547.8
293.15 K, x1 = 0.0198	–	1550.5
293.15 K, x1 = 0.0206	–	1552.8
293.15 K, x1 = 0.0214	–	1555.3
293.15 K, x1 = 0.0224	–	1557.8
293.15 K, x1 = 0.0232	–	1560.2
293.15 K, x1 = 0.0241	–	1562.7
293.15 K, x1 = 0.0254	–	1566
293.15 K, x1 = 0.0263	–	1568.5
293.15 K, x1 = 0.0276	–	1571.6
293.15 K, x1 = 0.0285	–	1573.9
293.15 K, x1 = 0.0294	–	1576.1
293.15 K, x1 = 0.0302	–	1578.2
293.15 K, x1 = 0.0314	–	1580.8
293.15 K, x1 = 0.0323	–	1583.1
293.15 K, x1 = 0.0333	–	1585.3
293.15 K, x1 = 0.0343	–	1587.6
293.15 K, x1 = 0.0355	–	1590.1
293.15 K, x1 = 0.0368	–	1592.9
293.15 K, x1 = 0.0383	–	1596.3
293.15 K, x1 = 0.0398	–	1599.2
293.15 K, x1 = 0.0408	–	1601.4
293.15 K, x1 = 0.0418	–	1603.3
293.15 K, x1 = 0.0435	–	1606.5
293.15 K, x1 = 0.0451	–	1609.5
293.15 K, x1 = 0.0472	–	1613.3
293.15 K, x1 = 0.0491	–	1616.6
293.15 K, x1 = 0.0506	–	1619.2
293.15 K, x1 = 0.0528	–	1622.7
293.15 K, x1 = 0.0552	–	1626.4
293.15 K, x1 = 0.0569	–	1629
293.15 K, x1 = 0.0599	–	1633.3
293.15 K, x1 = 0.0612	–	1635.1
293.15 K, x1 = 0.0629	–	1637.4
293.15 K, x1 = 0.0645	–	1639.4
293.15 K, x1 = 0.0665	–	1641.9
293.15 K, x1 = 0.0684	–	1644.3
293.15 K, x1 = 0.0711	–	1647.4
293.15 K, x1 = 0.0738	–	1650.3
293.15 K, x1 = 0.077	–	1653.6
293.15 K, x1 = 0.08	–	1656.5
293.15 K, x1 = 0.0837	–	1659.9
293.15 K, x1 = 0.0871	–	1662.8
293.15 K, x1 = 0.0895	–	1664.7
293.15 K, x1 = 0.0944	–	1668.3
293.15 K, x1 = 0.0974	–	1670.4
293.15 K, x1 = 0.1023	–	1673.5
293.15 K, x1 = 0.1068	–	1676.1
293.15 K, x1 = 0.1108	–	1678.1
293.15 K, x1 = 0.1168	–	1680.9
293.15 K, x1 = 0.121	–	1682.7
293.15 K, x1 = 0.1249	–	1684.1
293.15 K, x1 = 0.1295	–	1685.7
293.15 K, x1 = 0.1356	–	1687.5
293.15 K, x1 = 0.1401	–	1688.7
293.15 K, x1 = 0.1445	–	1689.8
293.15 K, x1 = 0.1521	–	1691.3
